{"source": "patent US9102614B2", "about": "“Naphth-2-ylacetic acid derivatives to treat AIDS” (Gilead Sciences, Inc., priority 2010, dated 2015)", "data": [{"test_system": "HIV-IIIb", "experiment": "Test A: Antiviral Assays in MT4 Cells", "type": "cell-based", "settings": "Human immunodeficiency virus 1, IIIB, MT4, 120 h", "experimental": "(§1) Test A: Antiviral Assays in MT4 Cells\n(§2) For the antiviral assay utilizing MT-4 cells, 0.4 μL of […] test concentration of 3-fold serially diluted compound in DMSO was added to 40 μL of cell growth medium (RPMI 1640, 10% FBS, 1% penicillin/Streptomycin, 1% L-Glutamine, 1% HEPES) in each well of 384-well assay plates (10 concentrations) in quadruplicate.\n(§3) 1 mL aliquots of 2×10e6 MT-4 cells are pre-infected for 1 and 3 hrs respectively, @37° C. with 25 μL (MT4) or of either cell growth medium (mock-infected) or a fresh 1:250 dilution of an HIV-IIIb concentrated ABI stock (0.004 m.o.i. for MT4 cells). Infected and uninfected cells are diluted in cell growth medium and 35 uL of 2000 (for MT4) cells is added to each well of the assay plates.\n(§4) Assay plates were then incubated in a 37° C. incubator. After 5 days of incubation, 25 μl of 2× concentrated CellTiter-Glo™ Reagent (catalog #G7573, Promega Biosciences, Inc., Madison, Wis.) was added to each well of the assay plate. Cell lysis was carried out by incubating at room temperature for 2-3 min and then chemiluminescence was read using the Envision reader (PerkinElmer).", "units": {"EC50": "µM"}, "values": [{"molecule": "Cc1cc2ccccc2c(-c2cccc(N3CCC3)c2)c1[C@H](OC(C)(C)C)C(=O)O", "note": "[Compound 19, (S)-2-(1-(3-(Azetidin-1-yl)phenyl)-3-methylnaphthalen-2-yl)-2-tert-butoxyacetic acid]", "EC50": 5.4}]}, {"test_system": "HIV-IIIb", "experiment": "Test A: Antiviral Assays in MT4 Cells", "type": "cell-based", "settings": "Human immunodeficiency virus 1, IIIB, MT4, 120 h, MT-4 cells infected with HIV-IIIb (0.004 m.o.i.), 5 days of incubation, CellTiter-Glo chemiluminescence readout; read-out: EC50", "experimental": "as §1, §2, §3, §4", "units": {"EC50": "µM"}, "values": [{"molecule": "Cc1cc2cc(F)c(F)cc2c(-c2ccc3c4c(ccnc24)CCO3)c1[C@H](OC(C)(C)C)C(=O)O", "note": "(atropisomer, axis not shown) [Compound 174]", "EC50": 3.2}, {"molecule": "Cc1cc2cc(Cl)ccc2c(-c2ccc3c4c(ccnc24)CCO3)c1[C@@H](OC(C)(C)C)C(=O)O", "note": "(atropisomer, axis not shown) [Compound 177]", "EC50": 37}, {"molecule": "Cc1c([C@H](OC(C)(C)C)C(=O)O)c(-c2ccc3c4c(ccnc24)CCO3)c2ccccc2c1F", "note": "(atropisomer, axis not shown) [Compound 178]", "EC50": 34}, {"molecule": "Cc1cc2ccc(F)cc2c(-c2ccc3c4c(ccnc24)CCO3)c1[C@H](OC(C)(C)C)C(=O)O", "note": "(atropisomer, axis not shown) [Compound 179]", "EC50": 18.7}, {"molecule": "Cc1cc2ccc(Cl)cc2c(-c2ccc3c4c(ccnc24)CCO3)c1[C@H](OC(C)(C)C)C(=O)O", "note": "(atropisomer, axis not shown) [Compound 180]", "EC50": 29}, {"molecule": "Cc1cc2cc(Cl)ccc2c(-c2ccc(Cl)cc2)c1C(OC(C)(C)C)C(=O)O", "note": "(racemic) [Compound 67, 2-tert-Butoxy-2-(6-chloro-1-(4-chlorophenyl)-3-methylnaphthalen-2-yl)acetic acid]", "EC50": 0.29}, {"molecule": "Cc1cc2ccccc2c(-c2ccc(Cl)cc2)c1[C@H](OC(C)(C)C)C(=O)O", "note": "[Compound 3K, (S)-2-tert-butoxy-2-(1-(4-chlorophenyl)-3-methylnaphthalen-2-yl)acetic acid]", "EC50": 0.056}, {"molecule": "Cc1cc2ccccc2c(-c2cccc3cccnc23)c1[C@H](OC(C)(C)C)C(=O)O", "note": "[Compound 4L, (S)-2-tert-butoxy-2-((S)-3-methyl-1-(quinolin-8-yl)naphthalen-2-yl)acetic acid]", "EC50": 22}, {"molecule": "Cc1cc2ccccc2c(C2=CCCCC2)c1[C@H](OC(C)(C)C)C(=O)O", "note": "[Compound 8, (S)-2-tert-Butoxy-2-(1-cyclohexenyl-3-methylnaphthalen-2-yl)acetic acid]", "EC50": 0.025}, {"molecule": "Cc1cc2ccccc2c(-c2ccc(F)c3cccnc23)c1[C@H](OC(C)(C)C)C(=O)O", "note": "[Compound 10, (2S)-2-tert-Butoxy-2-(1-(5-fluoroquinolin-8-yl)-3-methylnaphthalen-2-yl)acetic acid]", "EC50": 36}, {"molecule": "Cc1cc2ccccc2c(C2=CC(C)(C)CCC2=O)c1[C@H](OC(C)(C)C)C(=O)O", "note": "[Compound 11, (S)-2-tert-Butoxy-2-(1-(3,3-dimethyl-6-oxocyclohex-1-enyl)-3-methylnaphthalen-2-yl)acetic acid]", "EC50": 8.9}, {"molecule": "Cc1cc2ccccc2c(C2=CCCC2)c1[C@H](OC(C)(C)C)C(=O)O", "note": "[Compound 12, (S)-2-tert-Butoxy-2-(1-cyclopentenyl-3-methylnaphthalen-2-yl)acetic acid]", "EC50": 0.11}, {"molecule": "Cc1cc2ccccc2c(C2=CCC(C)CC2)c1[C@H](OC(C)(C)C)C(=O)O", "note": "(stereo partly drawn) [Compound 13, (2S)-2-tert-Butoxy-2-(3-methyl-1-(4-methylcyclohex-1-enyl)naphthalen-2-yl)acetic acid]", "EC50": 0.01}, {"molecule": "Cc1cc2ccccc2c(C2=CCC(C)(C)CC2)c1[C@H](OC(C)(C)C)C(=O)O", "note": "[Compound 14, (S)-2-tert-Butoxy-2-(1-(4,4-dimethylcyclohex-1-enyl)-3-methylnaphthalen-2-yl)acetic acid]", "EC50": 0.011}, {"molecule": "Cc1cc2ccccc2c(C2=CCC3(CC2)CC3)c1[C@H](OC(C)(C)C)C(=O)O", "note": "[Compound 15, (S)-2-tert-Butoxy-2-(3-methyl-1-(spiro[2.5]oct-5-en-6-yl)naphthalen-2-yl)acetic acid]", "EC50": 0.015}, {"molecule": "Cc1cc2ccccc2c(-c2cnc3ccccc3c2)c1[C@H](OC(C)(C)C)C(=O)O", "note": "[Compound 16, (S)-2-tert-Butoxy-2-(3-methyl-1-(quinolin-3-yl)naphthalen-2-yl)acetic acid]", "EC50": 7}, {"molecule": "Cc1ccc2ccc(F)c(-c3c([C@H](OC(C)(C)C)C(=O)O)c(C)cc4ccccc34)c2n1", "note": "[Compound 17, (S)-2-(tert-Butoxy)-2-((S)-1-(7-fluoro-2-methylquinolin-8-yl)-3-methylnaphthalen-2-yl)acetic acid]", "EC50": 7.7}, {"molecule": "Cc1cc2ccccc2c(-c2ccc3c4c2NCCC4CCO3)c1[C@H](OC(C)(C)C)C(=O)O", "note": "(stereo partly drawn) [Compound 20, (2S)-2-tert-Butoxy-2-(1-((7R)-2,3,3a,4,5,6-hexahydropyrano[4,3,2de]quinolin-7-yl)-3-methylnaphthalen-2-yl)acetic acid]", "EC50": 0.093}, {"molecule": "Cc1cc2ccccc2c(-c2ccc3c4c2N(C)CCC4CCO3)c1[C@H](OC(C)(C)C)C(=O)O", "note": "(stereo partly drawn) [Compound 22, (2S)-2-tert-Butoxy-2-(3-methyl-1-((7R)-6-methyl-2,3,3a,4,5,6-hexahydropyrano[4,3,2-de]quinolin-7-yl)naphthalen-2-yl)acetic acid]", "EC50": 0.54}, {"molecule": "CN(C)Cc1cc2ccccc2c(-c2ccc(Cl)cc2)c1[C@H](OC(C)(C)C)C(=O)O", "note": "[Compound 24, (S)-2-tert-Butoxy-2-(1-(4-chlorophenyl)-3-(dimethylaminomethyl)naphthalen-2-yl)acetic acid]", "EC50": 29}, {"molecule": "CC(C)(C)O[C@H](C(=O)O)c1c(COc2cccnc2)cc2ccccc2c1-c1ccc(Cl)cc1", "note": "[Compound 25, (S)-2-tert-Butoxy-2-(1-(4-chlorophenyl)-3-((pyridin-3-yloxy)methyl)naphthalen-2-yl)acetic acid]", "EC50": 26}, {"molecule": "CC(C)(C)O[C@H](C(=O)O)c1c(COc2cncnc2)cc2ccccc2c1-c1ccc(Cl)cc1", "note": "[Compound 26, (S)-2-tert-Butoxy-2-(1-(4-chlorophenyl)-3-((pyrimidin-5-yloxy)methyl)naphthalen-2-yl)acetic acid]", "EC50": 0.84}, {"molecule": "CC(C)(C)O[C@H](C(=O)O)c1c(CN2CCOCC2)cc2ccccc2c1-c1ccc(Cl)cc1", "note": "[Compound 27, (S)-2-tert-Butoxy-2-(1-(4-chlorophenyl)-3-(morpholinomethyl)naphthalen-2-yl)acetic acid]", "EC50": 3.5}, {"molecule": "COCc1cc2ccccc2c(-c2ccc(Cl)cc2)c1[C@H](OC(C)(C)C)C(=O)O", "note": "[Compound 28, (S)-2-tert-Butoxy-2-(1-(4-chlorophenyl)-3-(methoxymethyl)naphthalen-2-yl)acetic acid]", "EC50": 0.4}, {"molecule": "C=Cc1cc2ccccc2c(-c2ccc(Cl)cc2)c1[C@H](OC(C)(C)C)C(=O)O", "note": "[Compound 29A, (S)-2-tert-Butoxy-2-(1-(4-chlorophenyl)-3-vinylnaphthalen-2-yl)acetic acid]", "EC50": 0.13}]}, {"test_system": "HIV-IIIb", "experiment": "Test A: Antiviral Assays in MT4 Cells", "type": "cell-based", "settings": "MT-4 cells infected with HIV-IIIb (0.004 m.o.i.), 5 days of incubation, CellTiter-Glo chemiluminescence readout; read-out: EC50", "experimental": "as §1, §2, §3, §4", "units": {"EC50": "µM"}, "values": [{"molecule": "Cc1cc2cc(F)c(F)cc2c(-c2ccc3c4c(ccnc24)CCO3)c1[C@@H](OC(C)(C)C)C(=O)O", "note": "(atropisomer, axis not shown) [Compound 173]", "EC50": 3.2}, {"molecule": "Cc1cc2ccc(F)cc2c(-c2ccc3c4c(ccnc24)CCO3)c1[C@H](OC(C)(C)C)C(=O)O", "note": "(racemic) [Compound 123, (±)-(2S)-2-tert-Butoxy-2-((R)-1-(2,3-dihydropyrano[4,3,2-de]quinolin-7-yl)-7-fluoro-3-methylnaphthalen-2-yl)acetic acid]", "EC50": 0.024}, {"molecule": "Cc1cc2ccc(Cl)cc2c(-c2ccc3c4c(ccnc24)CCO3)c1C(OC(C)(C)C)C(=O)O", "note": "(racemic) [Compound 124, (±)-(S)-2-tert-butoxy-2-((R)-7-chloro-1-(2,3-dihydropyrano[4,3,2-de]quinolin-7-yl)-3-methylnaphthalen-2-yl)acetic acid]", "EC50": 0.15}, {"molecule": "Cc1cc2ccccc2c(-c2cccc3cccnc23)c1[C@H](OC(C)(C)C)C(=O)O", "note": "[Compound 4K, (S)-2-tert-butoxy-2-((R)-3-methyl-1-(quinolin-8-yl)naphthalen-2-yl)acetic acid]", "EC50": 0.301}, {"molecule": "Cc1cc2ccccc2c(-c2ccc3c4c(ccnc24)CCO3)c1[C@H](OC(C)(C)C)C(=O)O", "note": "[Compound 5K, (S)-2-tert-Butoxy-2-((S)-1-(2,3-dihydropyrano[4,3,2-de]quinolin-7-yl)-3-methylnaphthalen-2-yl)acetic acid]", "EC50": 4.6}, {"molecule": "Cc1cc2ccccc2c(-c2ccc3c4c(ccnc24)CCO3)c1[C@H](OC(C)(C)C)C(=O)O", "note": "[Compound 6D, (S)-2-tert-Butoxy-2-((R)-1-(2,3-dihydropyrano[4,3,2-de]quinolin-7-yl)-3-methylnaphthalen-2-yl)acetic acid]", "EC50": 0.014}, {"molecule": "Cc1cc2ccccc2c(-c2ccc(C(F)(F)F)c3cccnc23)c1[C@H](OC(C)(C)C)C(=O)O", "note": "[Compound 7D, (S)-2-tert-butoxy-2-((R)-3-methyl-1-(5-(trifluoromethyl)quinolin-8-yl)naphthalen-2-yl)acetic acid]", "EC50": 1.7}, {"molecule": "Cc1cc2ccccc2c(-c2ccc(C(F)(F)F)c3cccnc23)c1[C@H](OC(C)(C)C)C(=O)O", "note": "[Compound 7E, (S)-2-tert-butoxy-2-((S)-3-methyl-1-(5-(trifluoromethyl)quinolin-8-yl)naphthalen-2-yl)acetic acid]", "EC50": 20}, {"molecule": "Cc1cc2ccccc2c(-c2ccc3c4c(cc[n+]([O-])c24)CCO3)c1[C@H](OC(C)(C)C)C(=O)O", "note": "[Compound 23, 7-((R)-2-((S)-tert-Butoxy(carboxy)methyl)-3-methylnaphthalen-1-yl)-2,3-dihydropyrano[4,3,2-de]quinoline 6-oxide]", "EC50": 0.024}]}]}
